Experimental findings from patent US7442796B2, “Compounds for the treatment of metabolic disorders” (Wellstat Therapeutics Corporation, priority 2003, dated 2008) are described below.

The structures appear in SMILES notation.

This test concerns db/db mice. Kind of test: Antidiabetic effects in db/db mice (serum glucose and triglycerides after daily oral dosing). In kind it is in vivo. To be noted: male db/db mice, 17 days. The source says:
C57BL/Ksola (db/db) mice have a defect in leptin signaling, leading to hyperphagia, obesity and diabetes. Moreover, unlike ob/ob mice on a C57BL/6J background, db/db mice on a C57BLKS background undergo failure of their insulin-producing pancreatic islet cells, resulting in progression from hyperinsulinemia (associated with peripheral insulin resistance) to hypoinsulinemic diabetes.
Male obese (db/db homozygote) C57BL/Ksola mice approximately 8 weeks of age, were obtained from Jackson Labs (Bar Harbor, Me.) and sorted into groups of 7 animals each animals such that the body weights (40-45 g) and serum glucose levels (≧300 mg/dl in fed state) were similar between groups. A minimum of 7 days was allowed for adaptation after arrival. All animals were maintained under controlled temperature (23° C.), relative humidity (50±5%) and light (7:00-19:00), and allowed free access to standard chow (Formulab Diet 5008, Quality Lab Products, Elkridge, Md.) and water.
Treatment cohorts were given daily oral doses of vehicle (1% hydroxypropylmethylcellulose), Compounds BI, CF, CG, CQ or phenylacetate for 17 days. At the end of the treatment period, blood samples were collected and serum glucose and triglycerides were measured.

Take `Cc1cccc(C)c1COc1cccc(C(=O)C(=O)O)c1` [CQ, [3-(2,6-Dimethylbenzyloxy)-phenyl]-oxoacetic acid]: where the note is “60 mg/kg daily oral”, the “Glucose mg/dL (±SEM)” value amounted to 691 ± 37 mg/dL and the “Triglycerides” value is reported as 175 ± 25 mg/dL. Besides, under “100 mg/kg daily oral”, the “Glucose mg/dL (±SEM)” value is on record as 786 ± 65 mg/dL and the “Triglycerides” value worked out at 125 ± 10 mg/dL.
In the case of `O=C(O)Cc1ccccc1` [Phenylacetate, reference compound], for the setting “300 mg/kg daily oral”, the “Glucose mg/dL (±SEM)” value is 661 ± 64 mg/dL and the “Triglycerides” value is listed as 171 ± 33 mg/dL.
